Data published in article PMC10388696 (Clinical cancer research : an official journal of the …, 2023).

Key:
[1] = Clinical plasma pharmacokinetics; conditions: human, in vivo
[2] = Safety: treatment-related AEs and DLTs; type: in vivo
advanced solid tumors = assay: Tumor response by RECIST 1.1; type: in vivo, human; conditions: monotherapy Part A, 20 mg, one patient with peritoneal mesothelioma
[3] = QT interval corrected with Fridericia's method; type: in vivo, human; conditions: any dose level (data not shown)
[4] = across preclinical species; cited from earlier work
[5] = system: cancer cell proliferation; conditions: in vitro; cited from earlier work
T-cell activation = conditions: in vitro; cited from earlier work
[6] = system: multiple syngeneic models; conditions: in vivo; cited from earlier work
PI3K-γ = conditions: cited from earlier work

Q: Which half-life ([1]; 10 mg, terminal t1/2) does the source give for `C[C@H](NC(=O)c1c(N)nn2cccnc12)c1cc2cccc(C#Cc3cnn(C)c3)c2c(=O)n1-c1ccccc1` [Eganelisib] here?
A: Its half-life is 10.6 to 23.6 h.

Q: What about the half-life ([1]; 10 mg, terminal t1/2, geometric mean) of the same compound?
A: The half-life was 39.8 h.

Q: And the “dose proportionality of exposure (Cmax and AUC)” value ([1]; 60 mg)?
A: The value was “approximately dose proportional”.

Q: And the half-life ([1]; effective t1/2 calculated from the AR estimate)?
A: Its half-life is 9.3 to 25.7 h.

Q: What about the Tmax ([1]; po) of the same compound?
A: The Tmax was 1 to 6 h.

Q: And the half-life ([1]; t1/2)?
A: Its half-life is 10.6 to 39.8 h.

Q: And the “ALT increased, treatment-related, any grade” value ([2]; human, in vivo)?
A: The value was 3 (16%) n (%).

Q: And the “AST increased, treatment-related, any grade” value ([2]; human, in vivo)?
A: Its value is 4 (21%) n (%).

Q: And the “Fatigue, treatment-related, any grade” value ([2]; human, in vivo)?
A: Its value is 2 (11%) n (%).

Q: And the “Grade ≥3 treatment-related AEs” value ([2]; human, in vivo)?
A: Its value is 2 (11%) n (%).

Q: What about the “Headache, treatment-related, any grade” value ([2]; human, in vivo) of the same compound?
A: Its value is 2 (11%) n (%).

Q: What about the “Rash, treatment-related, any grade” value ([2]; human, in vivo) of the same compound?
A: Its value is 3 (16%) n (%).

Q: What about the “hepatic AEs” value ([2]; human, in vivo) of the same compound?
A: Its value is 33%.

Q: What about the “increased ALT, treatment-related grade ≥3” value ([2]; human, in vivo) of the same compound?
A: The value was 18%.

Q: And the “increased AST, treatment-related grade ≥3” value ([2]; human, in vivo)?
A: Its value is 18%.

Q: What about the “increased alkaline phosphatase, treatment-related grade ≥3” value ([2]; human, in vivo) of the same compound?
A: The value was 5%.

Q: What about the “patients who discontinued for a treatment-related AE” value ([2]; human, in vivo) of the same compound?
A: The value was 8%.

Q: What about the “patients with dose reduction for a treatment-related AE” value ([2]; human, in vivo) of the same compound?
A: Its value is 3%.

Q: What about the “treatment-related SAEs” value ([2]; human, in vivo) of the same compound?
A: The value was 2 (5%) n (%).

Q: And the “treatment-related serious adverse events” value ([2]; human, in vivo)?
A: The value was 5%.

Q: What about the “grade 5 treatment-related AEs” value ([2]; monotherapy) of the same compound?
A: The value was “no grade 5 treatment-related AEs”.

Q: And the MTD ([2]; monotherapy, 10–60 mg QD)?
A: Its MTD is “no dose of eganelisib monotherapy met MTD criteria”.

Q: What about the “effects on QTcF” value [3] of the same compound?
A: The value was “No clinically relevant effects”.

Q: And the oral bioavailability [4]?
A: Its oral bioavailability is no less than 31%.

Q: And the “direct effect on T-cell activation” value (T-cell activation)?
A: Its value is “no direct effect”.

Q: And the “tumor growth in syngeneic models” value [6]?
A: Its value is “tumor growth delay”.
